This experiment concerns the target T1, mGluR5 receptor (pig) (Sus scrofa, UniProt I3LUI7).
T1 construct: 450 μg protein from brain homogenate is incubated with 5 nM ^3[H]-MPEP; from tissue; host or cells: pig brain halves without medulla, cerebellum and pons
Description: [3H]-MPEP bond in the mGluR5 receptor bond assay (pig brain homogenate). As to conditions: 5 nM [3H]-MPEP; for inhibition at 10 µM: 10 μM test compound, 450 μg protein pig brain homogenate, 60 min room temperature; for IC50: pig brain homogenate. It counts as binding. As for the experimental part: I. Method for Determining the Inhibition of the [^3H]-MPEP Bond in the mGluR5 Receptor Bond Assay
Pig brain homogenate is produced by homogenisation (Polytron PT 3000, Kinematica AG, 10,000 rpm for 90 seconds) of pig brain halves without medulla, cerebellum and pons in buffer pH 8.0 (30 mM Hepes, Sigma, order no. H3375+1 tablet complete to 100 ml, Roche Diagnostics, order no. 1836145) in the ratio 1:20 (brain weight/volume) and differential centrifugation at 900×g and 40,000×g. In each case, 450 μg protein from brain homogenate is incubated with 5 nM ^3[H]-MPEP (Tocris, order no. […]
Thereafter, the batches are filtered with the help of a Brandel Cell Harvester (Brandel, TYP Robotic 9600) on unifilter plates with glass fibre filter mats (Perkin Elmer, order no. 6005177) and subsequently washed with buffer (as above) 3 times with in each case 250 μl per sample. The filter plates are subsequently dried for 60 min at 55° C. 30 μL Ultima Gold™ scintillator (Packard BioScience, order no. 6013159) is subsequently added per well and the samples are measured after 3 hours on the β-counter (Mikrobeta, Perkin Elmer). The unspecific bond is determined by addition of 10 μM MPEP (Tocris, order no. 1212).

T1 sequence (I3LUI7 19-1212): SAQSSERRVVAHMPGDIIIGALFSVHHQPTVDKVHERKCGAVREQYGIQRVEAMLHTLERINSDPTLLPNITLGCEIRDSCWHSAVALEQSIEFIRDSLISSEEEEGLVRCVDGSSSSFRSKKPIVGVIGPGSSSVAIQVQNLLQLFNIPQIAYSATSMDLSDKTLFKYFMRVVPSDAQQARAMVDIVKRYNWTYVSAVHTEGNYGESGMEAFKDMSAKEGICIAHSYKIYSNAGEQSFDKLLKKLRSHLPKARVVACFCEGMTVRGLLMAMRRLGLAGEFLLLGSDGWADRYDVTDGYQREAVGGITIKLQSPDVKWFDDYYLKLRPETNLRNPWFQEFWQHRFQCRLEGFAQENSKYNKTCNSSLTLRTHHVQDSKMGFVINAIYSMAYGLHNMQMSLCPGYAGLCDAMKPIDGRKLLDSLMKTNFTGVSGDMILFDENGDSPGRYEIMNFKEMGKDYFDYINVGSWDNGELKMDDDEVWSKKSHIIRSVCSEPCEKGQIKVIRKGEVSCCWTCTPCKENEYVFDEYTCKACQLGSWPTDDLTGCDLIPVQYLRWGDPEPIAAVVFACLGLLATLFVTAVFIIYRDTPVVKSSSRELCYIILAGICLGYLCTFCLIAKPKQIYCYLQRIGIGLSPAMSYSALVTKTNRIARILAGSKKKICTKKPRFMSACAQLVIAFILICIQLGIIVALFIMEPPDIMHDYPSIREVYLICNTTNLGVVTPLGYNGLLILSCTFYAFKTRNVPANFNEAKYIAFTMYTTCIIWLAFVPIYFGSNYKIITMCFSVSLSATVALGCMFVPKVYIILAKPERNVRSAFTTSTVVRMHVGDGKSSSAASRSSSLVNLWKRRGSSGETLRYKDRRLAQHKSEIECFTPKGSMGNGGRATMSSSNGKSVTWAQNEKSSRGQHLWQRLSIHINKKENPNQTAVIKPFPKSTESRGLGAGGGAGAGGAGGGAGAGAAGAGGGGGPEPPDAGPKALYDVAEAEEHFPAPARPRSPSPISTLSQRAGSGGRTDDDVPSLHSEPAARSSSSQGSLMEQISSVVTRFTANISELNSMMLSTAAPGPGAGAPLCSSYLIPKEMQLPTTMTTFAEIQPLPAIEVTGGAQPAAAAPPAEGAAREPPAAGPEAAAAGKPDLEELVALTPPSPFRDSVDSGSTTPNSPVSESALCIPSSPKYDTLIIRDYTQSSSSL

As a reminder, the inhibition is the relative decrease from the control value, in per cent. With `N#Cc1cccc(C#CC(=O)NCCc2ccc(F)cc2)c1` [Example 99, 3-(3-cyanophenyl)-N-(4-fluorophenethyl)propiolamide], the inhibition at 10 µM was 89%. With `O=C(C#Cc1ccccc1)NCCc1ccc(Cl)c(Cl)c1` [Example 101, N-(3,4-dichlorophenethyl)-3-phenylpropiolamide], the inhibition at 10 µM was found to be 89%. On the same count and under the same terms, under `Cc1cccc(C#CC(=O)NCCc2ccc(Cl)c(Cl)c2)c1` [Example 102, N-(3,4-dichlorophenethyl)-3-m-tolylpropiolamide] stands 105%.

Regarding `O=C(C#Cc1cccs1)NCCc1ccc(Cl)c(Cl)c1` [Example 103, N-(3,4-dichlorophenethyl)-3-(thiophene-2-yl)propiolamide], the inhibition at 10 µM came out at 88%. On the same count and under the same terms, under `N#Cc1cccc(C#CC(=O)NCCc2ccc(Cl)c(Cl)c2)c1` [Example 104, 3-(3-cyanophenyl)-N-(3,4-dichlorophenethyl)propiolamide] stands 84%. As to `O=C(C#Cc1ccc(F)cc1F)NCCc1cccs1` [Example 117, 3-(2,4-difluorophenyl)-N-(2-(thiophene-2-yl)ethyl)propiolamide], the inhibition at 10 µM came out at 33%. The same measure, in the same setting: under `O=C(C#Cc1ccccc1F)NCCc1cccs1` [Example 118, 3-(2-fluorophenyl)-N-(2-(thiophene-2-yl)ethyl)propiolamide] stands 67%; under `COc1cccc(C#CC(=O)NCCc2ccccc2OC)c1` [Example 132, N-(2-methoxyphenethyl)-3-(3-methoxyphenyl)propiolamide], 83%; under `COc1cccc(C#CC(=O)NCCc2ccc(Cl)cc2)c1` [Example 133, N-(4-chlorophenethyl)-3-(3-methoxyphenyl)propiolamide], 65%. The same measure, in the same setting: for `COc1ccccc1CCNC(=O)C#Cc1ccc(F)c(C)c1` [Example 134, 3-(4-fluoro-3-methylphenyl)-N-(2-methoxyphenethyl)propiolamide] the value was 77%; for `Cc1cc(C#CC(=O)NCCc2ccc(Cl)cc2)ccc1F` [Example 135, N-(4-chlorophenethyl)-3-(4-fluoro-3-methylphenyl)propiolamide], 44%; for `COc1ccccc1CCNC(=O)C#Cc1ccccc1` [Example 136, N-(2-methoxyphenethyl)-3-phenylpropiolamide], 110%. Same read-out and setting: under `O=C(C#Cc1ccccc1)NCCc1ccc(Cl)cc1` [Example 137, N-(4-chlorophenethyl)-3-phenylpropiolamide] stands 67%; under `COc1ccccc1CCNC(=O)C#Cc1cccc(C)c1` [Example 138, N-(2-methoxyphenethyl)-3-m-tolylpropiolamide], 97%. Consider `Cc1cccc(C#CC(=O)NCCc2ccc(Cl)cc2)c1` [Example 139, N-(4-chlorophenethyl)-3-m-tolylpropiolamide], for which the inhibition at 10 µM came out at 91%. Take `O=C(C#Cc1ccc(F)cc1)NCCc1ccc(Cl)cc1` [Example 140, N-(4-chlorophenethyl)-3-(4-fluorophenyl)propiolamide]: the inhibition at 10 µM amounted to 53%. Still for that read-out and setting: for `O=C(C#Cc1ccccc1F)NCCc1cccc(Cl)c1` [Example 148, N-(3-chlorophenethyl)-3-(2-fluorophenyl)propiolamide] the value was 79%; for `Cc1ccc(CCNC(=O)C#Cc2ccccc2F)cc1` [Example 149, 3-(2-fluorophenyl)-N-(4-methylphenethyl)propiolamide], 57%.

Turning to `O=C(C#Cc1ccccc1F)NCCc1ccc(F)cc1` [Example 151, N-(4-fluorophenethyl)-3-(2-fluorophenyl)propiolamide], the inhibition at 10 µM is 66%.

For the compound `COc1ccccc1CCNC(=O)C#Cc1cccs1` [Example 189, N-(2-methoxyphenethyl)-3-(thiophene-2-yl)propiolamide], the inhibition at 10 µM is 85%. On the same count and under the same terms, under `O=C(C#Cc1cccs1)NCCc1ccc(Cl)cc1` [Example 190, N-(4-chlorophenethyl)-3-(thiophene-2-yl)propiolamide] stands 65%; under `COc1ccccc1CCNC(=O)C#Cc1cccc(C#N)c1` [Example 191, 3-(3-cyanophenyl)-N-(2-methoxyphenethyl)propiolamide], 96%.

For `N#Cc1cccc(C#CC(=O)NCCc2ccc(Cl)cc2)c1` [Example 192, N-(4-chlorophenethyl)-3-(3-cyanophenyl)propiolamide], the inhibition at 10 µM is 91%. For `COc1ccccc1CCNC(=O)C#Cc1ccc(F)cc1F` [Example 193, 3-(2,4-difluorophenyl)-N-(2-methoxyphenethyl)propiolamide], the inhibition at 10 µM worked out at 31%. The same measure, in the same setting: for `COc1ccccc1CCNC(=O)C#Cc1ccccc1F` [Example 194, 3-(2-fluorophenyl)-N-(2-methoxyphenethyl)propiolamide] the value was 81%. As a reminder, the IC50 is the concentration needed to halve the response being measured. High values mean a need for much substance, low ones inhibition by little substance. `O=C(C#Cc1cccc(Cl)c1)NCCc1ccccc1F` [Example 215, 3-(3-chlorophenyl)-N-(2-fluorophenethyl)propiolamide] showed an IC50 of 9 nM. On the same count and under the same terms, for `O=C(C#Cc1cccc(Cl)c1)NCCc1cccc(F)c1` [Example 216, 3-(3-chlorophenyl)-N-(3-fluorophenethyl)propiolamide] the value was 12 nM; for `O=C(C#Cc1cccc(Cl)c1)NCCc1ccc(F)cc1` [Example 217, 3-(3-chlorophenyl)-N-(4-fluorophenethyl)propiolamide], 140 nM.

Consider `CN(CCc1ccccc1F)C(=O)C#Cc1cccc(Cl)c1` [Example 218, 3-(3-chlorophenyl)-N-(2-fluorophenethyl)-N-methylpropiolamide], for which the IC50 was 16 nM.

The compound `O=C(C#Cc1cccc(Cl)c1)NCCc1cccc(C(F)(F)F)c1` [Example 219, 3-(3-chlorophenyl)-N-(3-(trifluoromethyl)phenethyl)propiolamide] came in with a concentration for half-maximal inhibition (IC50) of 450 nM. `CN(CCc1ccc(F)cc1)C(=O)C#Cc1cccc(Cl)c1` [Example 220, 3-(3-chlorophenyl)-N-(4-fluorophenethyl)-N-methylpropiolamide] yielded a concentration for half-maximal inhibition (IC50) of 9 nM. On the same count and under the same terms, under `CN(CCc1cccc(F)c1)C(=O)C#Cc1cccc(Cl)c1` [Example 221, 3-(3-chlorophenyl)-N-(3-fluorophenethyl)-N-methylpropiolamide] stands 8 nM; under `CN(CCc1cccc(C(F)(F)F)c1)C(=O)C#Cc1cccc(Cl)c1` [Example 222, 3-(3-chlorophenyl)-N-methyl-N-(3-(trifluoromethyl)phenethyl)propiolamide], 75 nM.

In the case of `Cc1ccccc1CCNC(=O)C#Cc1cccc(Cl)c1` [Example 223, 3-(3-chlorophenyl)-N-(2-methylphenethyl)propiolamide], half-maximal inhibition (IC50) was put at 13 nM.

Regarding `Cc1cccc(CCNC(=O)C#Cc2cccc(Cl)c2)c1` [Example 224, 3-(3-chlorophenyl)-N-(3-methylphenethyl)propiolamide], inhibition was half-maximal at 40 nM (IC50).

In the case of `Cc1ccc(CCNC(=O)C#Cc2cccc(Cl)c2)cc1` [Example 225, 3-(3-chlorophenyl)-N-(4-methylphenethyl)propiolamide], half-maximal inhibition (IC50) required 210 nM. The same measure, in the same setting: for `Cc1ccccc1CCN(C)C(=O)C#Cc1cccc(Cl)c1` [Example 226, 3-(3-chlorophenyl)-N-methyl-N-(2-methylphenethyl)propiolamide] the value was 8 nM.

`Cc1cccc(CCN(C)C(=O)C#Cc2cccc(Cl)c2)c1` [Example 227, 3-(3-chlorophenyl)-N-methyl-N-(3-methylphenethyl)propiolamide]: half-maximal inhibition (IC50) required 15 nM. On the same count and under the same terms, for `Cc1ccc(CCN(C)C(=O)C#Cc2cccc(Cl)c2)cc1` [Example 228, 3-(3-chlorophenyl)-N-methyl-N-(4-methylphenethyl)propiolamide] the value was 280 nM; for `O=C(C#Cc1cccc(Cl)c1)NCCn1cccc1` [Example 230, N-(2-(1H-pyrrol-1-yl)ethyl)-3-(3-chlorophenyl)propiolamide], 190 nM.

In turn, `O=C(C#Cc1cccc(Cl)c1)NCCn1cccn1` [Example 231, N-(2-(1H-pyrazol-1-yl)ethyl)-3-(3-chlorophenyl)propiolamide] showed an IC50 of 140 nM.

`CN(CCn1cccc1)C(=O)C#Cc1cccc(Cl)c1` [Example 233, N-(2-(1H-pyrrol-1-yl)ethyl)-3-(3-chlorophenyl)-N-methylpropiolamide] yielded an IC50 of 31 nM. On the same count and under the same terms, for `CN(CCn1cccn1)C(=O)C#Cc1cccc(Cl)c1` [Example 234, N-(2-(1H-pyrazol-1-yl)ethyl)-3-(3-chlorophenyl)-N-methylpropiolamide] the value was 51 nM; for `O=C(C#Cc1cccc(Cl)c1)NCCc1cccnc1` [Example 235, 3-(3-chlorophenyl)-N-(2-(pyridine-3-yl)ethyl)propiolamide], 7 nM; for `CN(CCc1ccccn1)C(=O)C#Cc1cccc(Cl)c1` [Example 236, 3-(3-chlorophenyl)-N-methyl-N-(2-(pyridine-2-yl)ethyl)propiolamide], 29 nM. `CCN(CCc1ccccc1)C(=O)C#Cc1cccc(Cl)c1` [Example 237, 3-(3-chlorophenyl)-N-ethyl-N-phenethylpropiolamide] had an IC50 of 44 nM.

For the origin of these results see patent US20090182020A1, “SUBSTITUTED BIS(HETERO)AROMATIC N--ETHYLPROPIOLAMIDES AND USE THEREOF FOR PRODUCTION OF MEDICAMENTS” (GRUNENTHAL GMBH, priority 2005, published 2009).
